# Patent publication US20230130103A1, “TARGETED PHARMACOLOGICAL THERAPEUTICS IN UVEAL MELANOMA” (Washington University, priority 2017, published 2023)
# Starred links: 1 amine or outer side, 2 acyl side, 3 side chain; linkers in the order of their positions; H or OH if unused. Positions of bridges follow the written chain, without caps; N, C: chain ends. Non-standard residues stand in square brackets, D forms with d. Residues, ends and D or L forms follow the SMILES beside them. *: point of attachment. Leu(3R-OH,Nα-propionyl) = CCC(=O)N[C@H](C(=O)*)[C@H](O)C(C)C; X1 = CC(C)[C@@H](O[*:3])[C@H](N[*:1])C(=O)[*:2]; X2 = CC(C)[C@H](O[*:3])[C@@H](N[*:1])C(=O)[*:2]; NMeaThr = CN[C@H](C(=O)O)[C@H](C)O; dPhLac = O=C(O)[C@H](O)Cc1ccccc1; NMeA = CN[C@@H](C)C(=O)O; NMeDha = C=C(NC)C(=O)O
# System: 92.1 UM cells
# Test: Gene Set Enrichment Analysis (GSEA) of RNA-Seq data
# Type: cell-based, Human
# [1] = gene set #CAFFAREL_RESPONSE_TO_THC_DN
# [2] = gene set ALCALAY_AML_BY_NPM1_LOCALIZATION_DN
# [3] = gene set BASSO_[?]_LYMPHOCYTE_NETWORK
# [4] = gene set CHIANG_LIVER_CANCER_SUBCLASS_UNANNOTATED_DN
# [5] = gene set CHICAS_RB1_TARGETS_GROWING
# [6] = gene set CHICAS_RB1_TARGETS_SENESCENT
# [7] = gene set DOUGLAS_[?]_TARGETS_UP
# [8] = gene set ELVIDGE_HIF1A_TARGETS_UP
# [9] = gene set FERRANDO_T_ALL_WITH_MLL_ENL_FUSION_DN
# [10] = gene set FOURNIER_ACINAR_DEVELOPMENT_LATE_DN
# [11] = gene set GARCIA_TARGETS_OF_FL[?]_AND_DAX1_DN
# [12] = gene set GROSS_HYPOXIA_VIA_ELK3_UP
# [13] = gene set GRUETZMANN_PANCREATIC_CANCER_UP
# [14] = gene set IVANOVA_HEMATOPOIESIS_LATE_PROGENITOR
# [15] = gene set JOHNSTONE_PARVES_TARGETS_2_DN
# [16] = gene set KEGG_AMINO_SUGAR_AND_NUCLEOTIDE_SUGAR_METABOLISM
# [17] = gene set KEGG_CITRATE_CYCLE_TCA_CYCLE
# [18] = gene set KEGG_FC_GAMMA_[?]_MEIATED_PHAGOCYTOSIS
# [19] = gene set KEGG_PATHOGENIC_ESCHERICHIA_COLI_INFECTION
# [20] = gene set LASTOWSKA_NEUROBLASTOMA_COPY_NUMBER_DN
# [21] = gene set MARIADASON_REGULATED_BY_HISTONE_ACETYLATION_DN
# [22] = gene set MARTINEZ_RESPONSE_TO_TRABECTEDIN_DN
# [23] = gene set MEINHOLD_OVARIAN_CANCER_LOW_GRADE_DN
# [24] = gene set ONDER_CDH1_TARGETS_1_DN
# [25] = gene set OXFORD_RALA_OR_RALB_TARGETS_UP
# [26] = gene set PEART_HDAC_PROLIFERATION_CLUSTER_DN
# [27] = gene set PODAR_RESPONSE_TO_ADAPHOSTIN_DN
# [28] = gene set PRAMOONIAGO_SOX4_TARGETS_DN
# [29] = gene set PUIFFE_INVASION_INHIBITED_BY_ASCITES_UP
# [30] = gene set REACTOME_ACTIVATION_OF_CHAPERONE_GENES_BY_XBP15
compound,measurement,setting,value
"C=C1C(=O)N[C@@H](C)C(=O)N(C)[C@@H](C)C(=O)N[C@H]([C@@H](OC(=O)[C@@H](NC(=O)CC)[C@H](O)C(C)C)C(C)C)C(=O)N(C)[C@@H]([C@H](C)OC)C(=O)O[C@H](C(C)C)[C@H](NC(C)=O)C(=O)O[C@H](Cc2ccccc2)C(=O)N1C [FR, [(1S)-1-[(3S,6R,9S,12S,18R,21S,22R)-21-acetamido-18-benzyl-3-[(1S)-1-methoxyethyl]-4,9,10,12,16-pentamethyl-15-methylidene-2,5,8,11,14,17,20-heptaoxo-22-propan-2-yl-1,19-dioxa-4,7,10,13,16-pentazacyclodocos-6-yl]-2-methylpropyl] (2S,3R)-3-hydroxy-4-methyl-2-(propanoylamino)pentanoate] (Ac-[X1][dPhLac][NMeDha]A[NMeA][X2](Leu(3R-OH,Nα-propionyl))[NMeaThr](Me); ester 1-C)",ES,[1],0.6253
same,NES,[1],2.134
same,ES,[2],0.4726
same,NES,[2],2.261
same,ES,[3],0.4691
same,NES,[3],2.175
same,ES,gene set BENPORATH_ES_1,0.3997
same,NES,gene set BENPORATH_ES_1,2.093
same,ES,gene set BIOCARTA_RHO_PATHWAY,0.6245
same,NES,gene set BIOCARTA_RHO_PATHWAY,2.154
same,ES,[4],0.4436
same,NES,[4],2.13
same,ES,[5],0.4131
same,NES,[5],2.057
same,ES,[6],0.4124
same,NES,[6],2.254
same,ES,gene set CSR_EARLY_UP.V1_UP,0.4601
same,NES,gene set CSR_EARLY_UP.V1_UP,2.136
same,ES,[7],0.3969
same,NES,[7],2.179
same,ES,[8],0.5452
same,NES,[8],2.195
same,ES,[9],0.5186
same,NES,[9],2.174
same,ES,[10],0.6475
same,NES,[10],2.082
same,ES,gene set GABP_B,0.419
same,NES,gene set GABP_B,2.063
same,ES,[11],0.4628
same,NES,[11],2.153
same,ES,[12],0.4432
same,NES,[12],2.179
same,ES,[13],0.393
same,NES,[13],2.047
same,ES,[14],0.4037
same,NES,[14],2.155
same,ES,gene set JIANG_VHL_TARGETS,0.4893
same,NES,gene set JIANG_VHL_TARGETS,2.171
same,ES,[15],0.4128
same,NES,[15],2.133
same,ES,[16],0.5976
same,NES,[16],2.088
same,ES,[17],0.6499
same,NES,[17],2.188
same,ES,[18],0.5262
same,NES,[18],2.154
same,ES,[19],0.5693
same,NES,[19],2.167
same,ES,[20],0.3819
same,NES,[20],2.135
same,ES,gene set LINSLEY_MIR16_TARGETS,0.4327
same,NES,gene set LINSLEY_MIR16_TARGETS,2.092
same,ES,gene set LIN_APC_TARGETS,0.5227
same,NES,gene set LIN_APC_TARGETS,2.086
same,ES,gene set LY_AGING_PREMATURE_DN,0.6267
same,NES,gene set LY_AGING_PREMATURE_DN,2.103
same,ES,[21],0.5871
same,NES,[21],2.132
same,ES,[22],0.4324
same,NES,[22],2.184
same,ES,[23],0.7218
same,NES,[23],2.197
same,ES,gene set NPS14_DN.V1_DN,0.4491
same,NES,gene set NPS14_DN.V1_DN,2.133
same,ES,[24],0.4845
same,NES,[24],2.225
same,ES,[25],0.544
same,NES,[25],2.089
same,ES,gene set PBC2_EED_UP.V1_DN,0.4268
same,NES,gene set PBC2_EED_UP.V1_DN,2.076
same,ES,[26],0.4996
same,NES,[26],2.059
same,ES,gene set PIC_DCD42_REG_PATHWAY,0.5968
same,NES,gene set PIC_DCD42_REG_PATHWAY,2.051
same,ES,gene set PIC_E2F_PATHWAY,0.5204
same,NES,gene set PIC_E2F_PATHWAY,2.172
same,ES,gene set PIC_FANCONE_PATHWAY,0.5661
same,NES,gene set PIC_FANCONE_PATHWAY,2.097
same,ES,gene set PIC_FCER1_PATHWAY,0.5656
same,NES,gene set PIC_FCER1_PATHWAY,2.102
same,ES,gene set PID_PDGFRB_PATHWAY,0.4862
same,NES,gene set PID_PDGFRB_PATHWAY,2.232
same,ES,gene set PIO_AURORA_A_PATHWAY,0.6657
same,NES,gene set PIO_AURORA_A_PATHWAY,2.186
same,ES,gene set PIO_TCR_PATHWAY,0.6
same,NES,gene set PIO_TCR_PATHWAY,2.184
same,ES,[27],0.6921
same,NES,[27],2.117
same,ES,[28],0.5652
same,NES,[28],2.158
same,ES,[29],0.5104
same,NES,[29],2.126
same,ES,gene set RACTOME_IMMUNE_SYSTEM,0.3664
same,NES,gene set RACTOME_IMMUNE_SYSTEM,2.063
same,ES,"gene set RB_P107_0N, L1_UP",0.4941
same,NES,"gene set RB_P107_0N, L1_UP",2.216
same,ES,[30],0.5859
same,NES,[30],2.116
